A short description of data set [1]: Dissolution in deionized water / water solubility. Particulars: dissolved at 300 mg/ml in deionized water (KTX 0202: 300 mg/kg [sic]). The format is physicochemical.
Data set [2] can be described thus: Ketogenic activity after oral administration: plasma β-hydroxybutyrate in rats (Ranbut assay). Particulars: 300 mg/kg po; for maximum increase of plasma concentration of β-hydroxybutyrate: male Sprague-Dawley rats, versus baseline (T=0). The method, then:
Male Sprague-Dawley rats (weight range 200-250 g; Clarles River, Margate, Kent) were used. The rats were group-housed in polypropylene cages at a temperature of 21±4° C., 55±20% humidity on a standard 12 hour light/dark cycle (lights on at 6.00 am). […] Animals were acclimatized to these conditions for at least one week before experimentation.
The sodium salt of D-β-hydroxybutyrate monomer (KTX 0101) was used as a comparator for assessing the bioavailability of the oligomeric compounds described here. […] Control animals received the appropriate vehicle (deionized water at 1 ml/kg) via the same route.
In Protocol A, blood (approx […]) was collected by cardiac puncture at 15, 30 and 60 minutes after dosing. In Protocol B, blood (approx 5 ml) was collected by cardiac puncture at 30, 120 and 240 minutes after dosing. In Protocol E, blood (approx 5 ml) was collected by cardiac puncture at 120 and 240 minutes after dosing. Animals were killed by CO2 asphyxiation and blood collected by cardiac puncture. Blood was placed into EDTA-coated plasma collection tubes (Sarstedt 5 ml K2E tubes) and kept on ice prior to centrifugation. Tubes were centrifuged in an Eppendorf 570R centrifuge at 4° C. for 5 minutes at 2500 rpm (1000 g). Plasma samples were initially frozen on dry ice and transferred to a −75° C. freezer until required for analysis.
Commercial clinical assay kits (Ranbut) for the determination of D-β-hydroxybutyrate were obtained from Randox Laboratories (Antrim, UK). The kit quantified NADH via the activity of β-hydroxybutyrate dehydrogenase measured as an increase in OD340 nm. An alkaline pH is necessary to drive the reaction equilibrium towards the production of NADH and acetoacetate.
This spectrophotometric assay was modified for application to a 96-well microplate format. The reaction rate was then determined from the increase in OD340 nm over a 1 minute time-course, after allowing a necessary period for the reaction rate to settle.

Data set [3] is described as follows: Ketogenic activity after intravenous injection: plasma β-hydroxybutyrate in rats (Ranbut assay). Particulars: 300 mg/kg iv; for plasma concentration of β-hydroxybutyrate (increase to): 15 min after injection. The format is in vivo, rat. The method, then:
Male Sprague-Dawley rats (weight range 200-250 g) were obtained from Charles River, Margate, Kent.
The compounds were infused via the tail vein at 300 mg/kg (1 ml/kg) over a period of 1 to 2 min.
Animals were killed 15 min later by CO2 asphyxiation and blood was collected by cardiac puncture.

Regarding `C[C@@H](O)CC(=O)[O-].[Na+]` [KTX 0101, sodium D-β-hydroxybutyrate, reference compound], in data set [1], the “appearance of the solution” value is “clear solution” and the “pH of the solution” value came out at 7.0. Further, in data set [2], the “maximum increase of plasma concentration of β-hydroxybutyrate” value (“maximum increase … of β-hydroxybutyrate” for short) worked out at 0.4 mM. In data set [2] (rats), the “time at which plasma β-hydroxybutyrate was still significantly elevated” value was found to be 1 h, the “time at which the maximum increase of plasma β-hydroxybutyrate was observed” value is 15 min, the “time by which plasma β-hydroxybutyrate returned to control values” is at most 2 h and the “time until which plasma β-hydroxybutyrate plateaued at the maximum level” value was determined as 30 min. For the same compound, in data set [3], the “plasma concentration of β-hydroxybutyrate (increase to)” value is 1.0 mM.

Take “1-3 butandiol, di-(tri(R)-3-hydroxybutyrate)ester [KTX 0203]”: in data set [2], the “maximum increase … of β-hydroxybutyrate” value is listed as 0.4 mM. In addition, the “magnitude of increase in plasma β-hydroxybutyrate compared with KTX 0101” value (“magnitude of increase” for short) in data set [2] (rats) is “at least as great as those produced by KTX 0101”.

Turning to `CC(O)CCOC(=O)C[C@@H](C)OC(=O)C[C@@H](C)OC(=O)C[C@@H](C)O` (stereo partly drawn) [KTX 0202, 1-(tri(R)-3-hydroxybutyryl-butane-1,3-diol) ester], in data set [1], the “appearance of the solution” value is “slightly opaque solution” and the “pH of the solution” value worked out at 6.0. Further, the “maximum increase … of β-hydroxybutyrate” value in data set [2] was determined as 0.4 mM. In data set [2] (rats), the “biological half-life relative to KTX 0101” value is recorded as “improved biological half-life relative to KTX 0101”, the “magnitude of increase” value is “at least as great as those produced by KTX 0101”, the “oral bioavailability” value is “orally bioavailable” and the “time at which plasma β-hydroxybutyrate was still significantly elevated” value was 2 h. In data set [2] (rats), the “time at which the maximum increase of plasma β-hydroxybutyrate was observed” value is 30 min and the “time by which plasma β-hydroxybutyrate returned to control values” is at most 4 h. Moreover, in data set [3], the “bioavailability by the intravenous route” value is “bioavailable when injected via the intravenous route” and the “plasma concentration of β-hydroxybutyrate (increase to)” value worked out at 1.7 mM. Also, in data set [3] (15 min), the “increase of plasma β-hydroxybutyrate at 15 min, more than KTX 0101” value turned out to be 60%.

Take `C[C@@H]1CC(=O)O[C@H](C)CC(=O)O[C@H](C)CC(=O)O1` [(R)-3-β-hydroxybutyrate triolide, reference compound]: the “maximum increase … of β-hydroxybutyrate” value in data set [2] was 0.5 mM. The “magnitude of increase” value in data set [2] (rats) is recorded as “at least as great as that evoked by oral administration of the equivalent dose of KTX 0101”.

Source of the values: patent publication US7947736B2, “Oligomeric compounds” (BTG International Limited, priority 2004, dated 2011).
